# In patent US10028992B2, “Methods of treating muscular dystrophy” (BOARD OF REGENTS OF THE NEVADA SYSTEM OF HIGHER EDUCATION …, priority 2012, dated 2018):
# Tested on: α7 integrin promoter
# Assay: muscle cell-based assay: α7βgal+/− myoblasts/myotubes, LacZ reporter, β-galactosidase cleavage of FDG
# Parameters: species or system mouse
# Conditions: Myotubes; for Results in a α7+/− β-galactosidase assay, Myotubes, 0.5 uM: compound at 0.5 uM; for Results in a α7+/− β-galactosidase assay, Myotubes, 1 uM: compound at 1 uM; for Results in a α7+/− β-galactosidase assay, Myotubes, 5 uM: compound at 5 uM; for Results in a α7+/− β-galactosidase assay, Myotubes, 10 uM: compound at 10 uM; for Results in a α7+/− β-galactosidase assay, Myotubes, 20 uM: compound at 20 uM; for Results in a α7+/− β-galactosidase assay, Myotubes, 40 uM: compound at 40 uM
# How it was run: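 Fluorescein generated from FDG by β-galactosidase reports α7 integrin promoter activity in differentiated myoblasts from α7+/− LacZ knock-in pups. Screening hits then went to dose-response, western blotting and a myostatin counterscreen.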
compound,measurement,value
O=C(NCc1ccccc1)C(c1c(F)cccc1Cl)N(C(=O)c1csnn1)C1CC1 (stereo not drawn) [drawing 430],"Results in a α7+/− β-galactosidase assay, Myotubes, 0.5 uM",0.2226
same,"Results in a α7+/− β-galactosidase assay, Myotubes, 1 uM",−0.02073
same,"Results in a α7+/− β-galactosidase assay, Myotubes, 5 uM",−0.2107
same,"Results in a α7+/− β-galactosidase assay, Myotubes, 10 uM",−0.07084
same,"Results in a α7+/− β-galactosidase assay, Myotubes, 20 uM",−0.182
same,"Results in a α7+/− β-galactosidase assay, Myotubes, 40 uM",−0.2594
Cc1[nH]c2ccc(F)cc2c1CCN(Cc1ccco1)/C(S)=N/C(C)(C)C [drawing 431],"Results in a α7+/− β-galactosidase assay, Myotubes, 0.5 uM",−0.02866
same,"Results in a α7+/− β-galactosidase assay, Myotubes, 1 uM",−0.1703
same,"Results in a α7+/− β-galactosidase assay, Myotubes, 5 uM",−0.1851
same,"Results in a α7+/− β-galactosidase assay, Myotubes, 10 uM",−0.06955
same,"Results in a α7+/− β-galactosidase assay, Myotubes, 20 uM",−0.543
same,"Results in a α7+/− β-galactosidase assay, Myotubes, 40 uM",−0.807
c1ccc(-c2cc(-c3nc4ccccc4[nH]3)c3ccccc3n2)cc1 [drawing 432],"Results in a α7+/− β-galactosidase assay, Myotubes, 0.5 uM",−0.06598
same,"Results in a α7+/− β-galactosidase assay, Myotubes, 1 uM",−0.05419
same,"Results in a α7+/− β-galactosidase assay, Myotubes, 5 uM",−0.2722
same,"Results in a α7+/− β-galactosidase assay, Myotubes, 10 uM",−0.06437
same,"Results in a α7+/− β-galactosidase assay, Myotubes, 20 uM",−0.3184
same,"Results in a α7+/− β-galactosidase assay, Myotubes, 40 uM",−0.5085
CCC(C)n1nc(O)cc1N (stereo not drawn) [drawing 433],"Results in a α7+/− β-galactosidase assay, Myotubes, 0.5 uM",0.1351
same,"Results in a α7+/− β-galactosidase assay, Myotubes, 1 uM",−0.05991
same,"Results in a α7+/− β-galactosidase assay, Myotubes, 5 uM",−0.1063
same,"Results in a α7+/− β-galactosidase assay, Myotubes, 10 uM",−0.1016
same,"Results in a α7+/− β-galactosidase assay, Myotubes, 20 uM",−0.1631
same,"Results in a α7+/− β-galactosidase assay, Myotubes, 40 uM",−0.144
Cc1ccc(C(=O)N2CCN(S(=O)(=O)N3CCOCC3)CC2)cc1 [drawing 434],"Results in a α7+/− β-galactosidase assay, Myotubes, 0.5 uM",−0.01141
same,"Results in a α7+/− β-galactosidase assay, Myotubes, 1 uM",−0.169
same,"Results in a α7+/− β-galactosidase assay, Myotubes, 5 uM",0.007084
same,"Results in a α7+/− β-galactosidase assay, Myotubes, 10 uM",0.1108
same,"Results in a α7+/− β-galactosidase assay, Myotubes, 20 uM",−0.2209
same,"Results in a α7+/− β-galactosidase assay, Myotubes, 40 uM",0.1179
Cc1cccc(NC(=O)CN(C)C(=O)c2ccc(-c3ccc(Cl)cc3)o2)c1 [drawing 435],"Results in a α7+/− β-galactosidase assay, Myotubes, 0.5 uM",−0.06415
same,"Results in a α7+/− β-galactosidase assay, Myotubes, 1 uM",−0.0743
same,"Results in a α7+/− β-galactosidase assay, Myotubes, 5 uM",−0.09532
same,"Results in a α7+/− β-galactosidase assay, Myotubes, 10 uM",−0.1682
same,"Results in a α7+/− β-galactosidase assay, Myotubes, 20 uM",−0.3693
same,"Results in a α7+/− β-galactosidase assay, Myotubes, 40 uM",−0.5402
Cc1ccccc1S(=O)(=O)N1C[C@H]2CON(C)[C@H]2C[C@H]1c1cccc(-c2ccccc2)c1 [drawing 436],"Results in a α7+/− β-galactosidase assay, Myotubes, 0.5 uM",0.01204
same,"Results in a α7+/− β-galactosidase assay, Myotubes, 1 uM",0.03174
same,"Results in a α7+/− β-galactosidase assay, Myotubes, 5 uM",−0.2012
same,"Results in a α7+/− β-galactosidase assay, Myotubes, 10 uM",−0.2418
same,"Results in a α7+/− β-galactosidase assay, Myotubes, 20 uM",−0.3306
same,"Results in a α7+/− β-galactosidase assay, Myotubes, 40 uM",−0.5892
N#C/C(=C/c1ccc(N2CCOCC2)o1)C(=O)Nc1ccccc1 [drawing 437],"Results in a α7+/− β-galactosidase assay, Myotubes, 0.5 uM",−0.01316
same,"Results in a α7+/− β-galactosidase assay, Myotubes, 1 uM",0.1058
same,"Results in a α7+/− β-galactosidase assay, Myotubes, 5 uM",−0.1378
same,"Results in a α7+/− β-galactosidase assay, Myotubes, 10 uM",−0.06524
same,"Results in a α7+/− β-galactosidase assay, Myotubes, 20 uM",0.007978
same,"Results in a α7+/− β-galactosidase assay, Myotubes, 40 uM",−0.03236
CCOc1ccccc1Nc1cc2n(c(=O)n1)CCc1cc(OC)c(OC)cc1-2 [drawing 438],"Results in a α7+/− β-galactosidase assay, Myotubes, 0.5 uM",0.06921
same,"Results in a α7+/− β-galactosidase assay, Myotubes, 1 uM",0.1295
same,"Results in a α7+/− β-galactosidase assay, Myotubes, 5 uM",−0.255
same,"Results in a α7+/− β-galactosidase assay, Myotubes, 10 uM",−0.3585
same,"Results in a α7+/− β-galactosidase assay, Myotubes, 20 uM",−0.1938
same,"Results in a α7+/− β-galactosidase assay, Myotubes, 40 uM",−0.1921
CCOc1ccccc1NC(=O)COC(=O)CNS(=O)(=O)c1ccc(C)cc1 [drawing 440],"Results in a α7+/− β-galactosidase assay, Myotubes, 0.5 uM",−0.09293
same,"Results in a α7+/− β-galactosidase assay, Myotubes, 1 uM",0.0165
same,"Results in a α7+/− β-galactosidase assay, Myotubes, 5 uM",−0.2547
same,"Results in a α7+/− β-galactosidase assay, Myotubes, 10 uM",−0.2483
same,"Results in a α7+/− β-galactosidase assay, Myotubes, 20 uM",−0.1393
same,"Results in a α7+/− β-galactosidase assay, Myotubes, 40 uM",−0.07634
Fc1ccc(-c2ccnc3nc(N4CCN(c5ccccc5)CC4)nn23)cc1 [drawing 441],"Results in a α7+/− β-galactosidase assay, Myotubes, 0.5 uM",0.1617
same,"Results in a α7+/− β-galactosidase assay, Myotubes, 1 uM",0.1989
same,"Results in a α7+/− β-galactosidase assay, Myotubes, 5 uM",0.08445
same,"Results in a α7+/− β-galactosidase assay, Myotubes, 10 uM",0.3037
same,"Results in a α7+/− β-galactosidase assay, Myotubes, 20 uM",−0.1429
same,"Results in a α7+/− β-galactosidase assay, Myotubes, 40 uM",0.1756
CCOc1cc2c3c(c1)C(C)=CC(C)(C)N3C(=O)C2=O [drawing 442],"Results in a α7+/− β-galactosidase assay, Myotubes, 0.5 uM",0.1339
same,"Results in a α7+/− β-galactosidase assay, Myotubes, 1 uM",0.05498
same,"Results in a α7+/− β-galactosidase assay, Myotubes, 5 uM",−0.2641
same,"Results in a α7+/− β-galactosidase assay, Myotubes, 10 uM",−0.2882
same,"Results in a α7+/− β-galactosidase assay, Myotubes, 20 uM",−0.3067
same,"Results in a α7+/− β-galactosidase assay, Myotubes, 40 uM",−0.3705
COc1ccc2c(c1)/C(=C\c1cccc(/C=C3/C(=O)Nc4ccc(OC)cc43)n1)C(=O)N2 [drawing 443],"Results in a α7+/− β-galactosidase assay, Myotubes, 0.5 uM",−0.1407
same,"Results in a α7+/− β-galactosidase assay, Myotubes, 1 uM",−0.2351
same,"Results in a α7+/− β-galactosidase assay, Myotubes, 5 uM",−0.5201
same,"Results in a α7+/− β-galactosidase assay, Myotubes, 10 uM",−0.5078
same,"Results in a α7+/− β-galactosidase assay, Myotubes, 20 uM",−0.5433
same,"Results in a α7+/− β-galactosidase assay, Myotubes, 40 uM",−0.6161
C/C(=N\NC(=O)c1cc(C)oc1C)c1ccc2ccccc2c1 [drawing 444],"Results in a α7+/− β-galactosidase assay, Myotubes, 0.5 uM",−0.05394
same,"Results in a α7+/− β-galactosidase assay, Myotubes, 1 uM",−0.1247
same,"Results in a α7+/− β-galactosidase assay, Myotubes, 5 uM",0.2514
same,"Results in a α7+/− β-galactosidase assay, Myotubes, 10 uM",−0.05957
same,"Results in a α7+/− β-galactosidase assay, Myotubes, 20 uM",−0.1231
same,"Results in a α7+/− β-galactosidase assay, Myotubes, 40 uM",−0.2807
O=C1Nc2ccccc2/C1=C\c1cccn1-c1ccc(OC(F)(F)F)cc1 [drawing 445],"Results in a α7+/− β-galactosidase assay, Myotubes, 0.5 uM",0.0705
same,"Results in a α7+/− β-galactosidase assay, Myotubes, 1 uM",0.06007
same,"Results in a α7+/− β-galactosidase assay, Myotubes, 5 uM",0.1996
same,"Results in a α7+/− β-galactosidase assay, Myotubes, 10 uM",−0.05189
same,"Results in a α7+/− β-galactosidase assay, Myotubes, 20 uM",−0.1444
same,"Results in a α7+/− β-galactosidase assay, Myotubes, 40 uM",−0.2888
